Experimental data as given in publication PMC12856317, “A reversible feedback mechanism regulating mitochondrial heme synthesis” (The Journal of Biological Chemistry, 2025).
Positions count from the first letter of the chain named.

Columns and labels:
Format in all cases: biochemical
[1] = target: T1, WT apoALAS2 (residues 54–587) (Homo sapiens, UniProt P22557); assay: Inhibitor competition, apoenzyme reactivation by PLP with or without hemin; conditions: for Vmax / Km: PLP varied; for Km: 95% confidence interval in brackets
T1 construct: His6-SUMO (N, cleaved yes); made in house; host or cells: Escherichia coli BL21-Codon Plus (DE3)-RIL
T1 sequence (P22557 54-587): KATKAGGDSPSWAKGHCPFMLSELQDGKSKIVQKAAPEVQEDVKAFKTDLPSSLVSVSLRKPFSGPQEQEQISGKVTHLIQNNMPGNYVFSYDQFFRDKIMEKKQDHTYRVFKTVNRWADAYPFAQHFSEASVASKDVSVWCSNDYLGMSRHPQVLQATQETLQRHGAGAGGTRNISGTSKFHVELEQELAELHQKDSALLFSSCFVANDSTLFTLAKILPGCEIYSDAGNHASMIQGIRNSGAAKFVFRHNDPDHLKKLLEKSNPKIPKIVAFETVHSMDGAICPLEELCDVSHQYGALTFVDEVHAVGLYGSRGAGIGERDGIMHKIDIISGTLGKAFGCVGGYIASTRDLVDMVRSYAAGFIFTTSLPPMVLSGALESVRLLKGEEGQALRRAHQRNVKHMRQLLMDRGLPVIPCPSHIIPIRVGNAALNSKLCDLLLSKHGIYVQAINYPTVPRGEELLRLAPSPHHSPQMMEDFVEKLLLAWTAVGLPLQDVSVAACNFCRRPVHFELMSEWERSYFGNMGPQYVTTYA
Procedure: (§1) A discontinuous colorimetric activity assay adapted from Shoolingin-Jordan et al. and Bailey et al. was used to measure the enzyme activity ([48], [74]). The reaction was initiated by adding 100 nM purified enzyme to 50 mM potassium phosphate, pH 7.0, 10 mM MgCl2, 1 mM DTT, 100 mM glycine, and 300 μM succinyl-CoA (175 μl total). The reaction was incubated at 37 °C for 15 min and terminated with 100 μl of cold 10% trichloroacetic acid. The precipitated protein was removed by centrifugation for 5 min at 13,000g, and 240 μl of the supernatant was mixed with 240 μl of 1 M sodium acetate, pH 4.6. To derivatize ALA, 20 μl of acetylacetone was added to the mixture and boiled at 100 °C for 10 min. After the sample was cooled for 20 min, 100 μl aliquots were transferred into a clear 96-well plate in triplicate. An equal volume of Ehrlich’s reagent (p-Dimethylaminobenzaldehyde, DMAB) was added to each well, and the absorbance was monitored at 553 nm using a microplate reader (Thermo Fisher Scientific). The peak absorbance value was converted to molar ALA concentration using ε553 = 60,400 M^−1 cm^−1.
(§2) For inhibitor competition experiments, the apoenzymes were preincubated with hemin or PLP (0–100 μM) for 15 min at 25 °C in the dark before initiating the reaction. Next, either PLP or hemin (0–100 μM) was titrated into the reactions to measure enzyme activation after hemin inhibition or enzyme inhibition of the PLP-treated apoenzyme, respectively. For succinyl-CoA:hemin competition analyses, the WT holoenzyme was mixed with hemin (0, 25, 50, and 100 μM), followed by the addition of increasing succinyl-CoA concentrations (0, 25, 50, 100, 250, and 500 μM). All experiments were performed with a minimum of three biological replicates, each with three technical replicates. Data were fit using nonlinear regression to generate an agonist dose-response curve (EC50) or an inhibitor dose-response curve (IC50). Lineweaver-Burk analysis was performed using the resulting kinetic parameters (Vmax and KM) in GraphPad Prism 10.

[2] = target: T2, apoALAS2 Cys-mut (C70A/C555A/C558A) (Homo sapiens, UniProt P22557, C555A/C558A/C70A); assay: Inhibitor competition, apoenzyme reactivation by PLP with hemin
T2 construct: Site-directed mutagenesis was performed on the mature ALAS2 (residues 54–587) construct to generate truncations and cysteine mutants; His6-SUMO (N, cleaved yes); made in house; host or cells: Escherichia coli BL21-Codon Plus (DE3)-RIL
T2 sequence (P22557 54-587 C70A/C555A/C558A): T1 sequence (P22557 54-587) with C17A, C502A, C505A
Procedure: as §1, §2

[3] = target: T3, apoALAS2 ΔC (residues 54–547) (Homo sapiens, UniProt P22557); assay: as above
T3 construct: a truncation without the C-terminal CXXC motif (ΔC, residues 54–547); His6-SUMO (N, cleaved yes); made in house; host or cells: Escherichia coli BL21-Codon Plus (DE3)-RIL
T3 sequence (P22557 54-547): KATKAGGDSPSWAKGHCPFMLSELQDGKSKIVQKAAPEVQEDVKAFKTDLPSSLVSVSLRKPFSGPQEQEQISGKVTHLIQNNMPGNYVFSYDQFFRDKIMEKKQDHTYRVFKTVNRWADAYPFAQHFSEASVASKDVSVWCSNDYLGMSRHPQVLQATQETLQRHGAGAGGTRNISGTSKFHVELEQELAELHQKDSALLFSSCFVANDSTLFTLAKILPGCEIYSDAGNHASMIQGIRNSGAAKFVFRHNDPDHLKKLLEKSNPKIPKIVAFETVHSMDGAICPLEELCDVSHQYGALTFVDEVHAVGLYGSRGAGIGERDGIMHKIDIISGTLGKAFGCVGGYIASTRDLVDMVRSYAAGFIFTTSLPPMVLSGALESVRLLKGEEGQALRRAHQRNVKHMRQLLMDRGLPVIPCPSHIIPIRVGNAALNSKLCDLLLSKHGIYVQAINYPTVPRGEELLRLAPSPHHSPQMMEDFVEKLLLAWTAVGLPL
Procedure: as §1, §2

| Vmax ([1]; hemin 0 μM) | Km ([1]; hemin 0 μM) [µM] | Vmax ([1]; hemin 10 μM) | Km ([1]; hemin 10 μM) [µM] | Vmax ([1]; hemin 25 μM) | Km ([1]; hemin 25 μM) [µM] | Vmax ([1]; hemin 50 μM) | Km ([1]; hemin 50 μM) [µM] | Vmax ([1]; hemin 100 μM) | Km ([1]; hemin 100 μM) [µM] | activation constant (Ka) ([1]; WT apoALAS2, PLP titration in the absence of heme) [µM] | EC50 ([1]; WT apoALAS2, PLP titration in the presence of 50 μM hemin) [µM] | apoenzyme activity restored ([1]; WT apoenzyme preincubated with 50 μM heme, excess PLP) [%] | EC50 ([2]; Cys-mut apoALAS2, PLP titration in the presence of 50 μM hemin) [µM] | EC50 ([3]; ΔC apoALAS2, PLP titration in the presence of 50 μM hemin) [µM] | apoenzyme activity restored ([3]; ΔC apoenzyme preincubated with 50 μM heme, excess PLP) [%] | mode of inhibition ([1]; WT apoenzyme, varied PLP, various heme concentrations up to 100-fold excess) | mode of inhibition ([2]; Cys-mut, multiple heme concentrations (Fig. S4)) | mode of inhibition ([3]; ΔC, multiple heme concentrations (Fig. S4)) | Compound |
| --- | --- | --- | --- | --- | --- | --- | --- | --- | --- | --- | --- | --- | --- | --- | --- | --- | --- | --- | --- |
| 110.84 [123.30, 100.65] nmol/min/mg | 0.86 | 91.16 [97.56, 85.54] nmol/min/mg | 3.36 | 58.17 [67.25, 51.28] nmol/min/mg | 4.78 | 45.96 [99.50, 29.88] nmol/min/mg | 11.9 | 27.29 [41.39, 20.36] nmol/min/mg | 9.82 | 0.72 ± 0.08 | 7 ± 1 | ~50 | 10 ± 4 | 9 ± 1 | ~50 |  |  |  | Cc1ncc(COP(=O)(O)O)c(C=O)c1O [PLP] |
|  |  |  |  |  |  |  |  |  |  |  |  |  |  |  |  | mixed inhibitor | allosteric mixed inhibitor | allosteric mixed inhibitor | ferric chloride heme [hemin] |
